Experimental data as given in publication PMC7194293, “Living on the Edge: Physiological and Kinetic Trade-Offs Shape Thermal Tolerance in Intertidal Crabs From Tropical to Sub-Antarctic South America” (Frontiers in Physiology, 2020).
Where two headings read alike, the source gives them in different places.

Assays:
Experiment in all cases: NADH oxidation at […] nm, muscle homogenate supernatant
[1] = system: T1, LDH (muscle lactate dehydrogenase); format: biochemical, Acanthocyclus albatrossis; conditions: 150 uM NADH, 80 mM imidazole-HCl pH 6.9, 9 °C (FRT); read-out: Km^Pyr / (mM) / FRT
T1 construct: native, not purified; supernatant of abdominal muscle homogenate, pooled crabs, Ushuaia, Argentina

[2] = system: T2, LDH (muscle lactate dehydrogenase); format: biochemical, Uca maracoani; conditions: 150 uM NADH, 80 mM imidazole-HCl pH 6.9, 26 °C (FRT); read-out: Km^Pyr / (mM) / FRT
T2 construct: native, not purified; supernatant of abdominal muscle homogenate, pooled crabs, Pernambuco, Brazil

[3] = system: T2, LDH (muscle lactate dehydrogenase); format: biochemical, Ucides cordatus; conditions: 150 uM NADH, 80 mM imidazole-HCl pH 6.9, 26 °C (FRT); read-out: Km^Pyr / (mM) / FRT
[4] = system: T2, LDH (muscle lactate dehydrogenase); format: biochemical, Goniopsis cruentata; conditions: 150 uM NADH, 80 mM imidazole-HCl pH 6.9, 26 °C (FRT); read-out: Km^Pyr / (mM) / FRT
[5] = system: T2, LDH (muscle lactate dehydrogenase); format: biochemical, Pachygrapsus transversus; conditions: 150 uM NADH, 80 mM imidazole-HCl pH 6.9, 26 °C (FRT); read-out: Km^Pyr / (mM) / FRT
[6] = system: T1, LDH (muscle lactate dehydrogenase); format: biochemical, Halicarcinus planatus; conditions: 150 uM NADH, 80 mM imidazole-HCl pH 6.9, 9 °C (FRT); read-out: Km^Pyr / (mM) / FRT
[7] = system: T3, LDH (muscle lactate dehydrogenase); format: biochemical, Armases rubripes; conditions: 150 uM NADH, 80 mM imidazole-HCl pH 6.9, 15 °C (FRT); read-out: Km^Pyr / (mM) / FRT
T3 construct: native, not purified; supernatant of abdominal muscle homogenate, pooled crabs, Rio Grande, Brazil

[8] = system: T2, LDH (muscle lactate dehydrogenase); format: biochemical, Aratus pisonii; conditions: 150 uM NADH, 80 mM imidazole-HCl pH 6.9, 26 °C (FRT); read-out: Km^Pyr / (mM) / FRT
[9] = system: T3, LDH (muscle lactate dehydrogenase); format: biochemical, Leptuca uruguayensis; conditions: 150 uM NADH, 80 mM imidazole-HCl pH 6.9, 15 °C (FRT); read-out: Km^Pyr / (mM) / FRT
[10] = system: T2, LDH (muscle lactate dehydrogenase); format: biochemical, Cardisoma guanhumi; conditions: 150 uM NADH, 80 mM imidazole-HCl pH 6.9, 26 °C (FRT); read-out: Km^Pyr / (mM) / FRT
[11] = system: T3, LDH (muscle lactate dehydrogenase); format: biochemical, Neohelice granulata; conditions: 150 uM NADH, 80 mM imidazole-HCl pH 6.9, 15 °C (FRT); read-out: Km^Pyr / (mM) / FRT
[12] = system: T2, LDH (muscle lactate dehydrogenase); format: biochemical, Ocypode quadrata; conditions: 150 uM NADH, 80 mM imidazole-HCl pH 6.9, 26 °C (FRT); read-out: Km^Pyr / (mM) / FRT

With CC(=O)C(=O)O [pyruvate] the Km [1] was 0.3 mM, the Km [2] was 0.49 ± 0.05 mM and the Km [3] was 0.17 ± 0.01 mM. The Km [4] was 0.1 mM, the Km [5] was 0.2 ± 0.01 mM and the Km [6] was 0.5 mM. The Km [7] was 0.15 ± 0.01 mM, the Km [8] was 0.11 mM and the Km [9] was 0.16 mM. For the same compound, the Km [10] was 0.17 ± 0.01 mM, the Km [11] was 0.32 ± 0.03 mM and the Km [12] was 0.15 ± 0.02 mM.
